Tests used:
Type in all cases: physicochemical
[1] = Kinetic solubility study (saturated solutions, HPLC); conditions: for Solubility in H2O / Solubility in FaSSIF / Solubility in FeSSIF: 20 mg in 1.5 mL
Method: The HPLC method parameters for solubility test in the present disclosure are as follows: • 1. Column: Waters XBridge C18 150×4.6mm, 5 μm • 2. Mobile Phase: A: 0.1% TFA in H2O • B: 0.1% TFA in Acetonitrile • Gradient:
• 3. Flow rate: 1 mL/min • 4. Injection Volume: 5 μL • 5. Detection wavelength: 250 nm • 6. Column Temperature: 40° C. • 7. Diluent: Acetonitrile/H2O (9:1, v/v)
• Simulated gastrointestinal fluids such as FaSSIF (Fasted state simulated intestinal fluids) and FeSSIF (Fed state simulated intestinal fluids) are biorelevant media. […] After equilibrated for 1 h and 4 h, concentrations (mg/mL) of the saturated solutions were measured by HPLC.
• 20 mg of Form CSIII and 20 mg of crystalline forms in the prior arts were suspended into 1.5 mL of SGF, 1.5 mL of FaSSIF, 1.5 mL of FeSSIF and 1.5 mL of water to get saturated solutions. After equilibrated for 1 h and 4 h, concentrations (mg/mL) of the saturated solutions were measured by HPLC.

[2] = Compressibility (tensile strength of manually compressed tablet); conditions: for Average tensile strength: 80 mg, φ6 mm round tooling, 10 KN, average of three tests
Method: • Manual tablet press was used for compression. 80 mg of Form CSIII and crystalline forms in the prior art were weighed and added into the dies of a φ6 mm round tooling, respectively, compressed at 10 KN manually, then stored at room temperature for 24 h until complete elastic recovery. Hardness (H) was tested with an intelligent tablet hardness tester. Diameter (D) and thickness (L) were tested with caliper. Tensile strength of the powder was calculated with the following formula: T=2H/πDL.

[3] = Flowability (compressibility index / Carr index); conditions: for Compressibility index: c=(ρf−ρ0)/ρf
Method: Compressibility index test method is as follows: a certain amount of powder was added into a measuring cylinder and bulk volume was recorded. Then the powder was tapped to make it in the tightest state and the tapped volume was recorded. The bulk density (ρ0), tapped density (ρf) were calculated and compressibility index was calculated according to c=(ρf−ρ0)/ρf. • Criteria of flowability according to United States Pharmacopoeia USP1174, which is shown in Table 7.

[4] = Adhesiveness (material sticking to the punch); conditions: for Average amount sticking to the punch / Maximum amount sticking to the punch: 30 mg, φ8 mm round tooling, 10 KN held 30 s
Method: • 30 mg of Form CSIII and crystalline forms in the prior art were weighed separately and then added into the dies of φ8 mm round tooling, compressed at 10 KN and held for 30 s. The punch was weighed and amount of material sticking to the punch was calculated. The compression was repeated twice and the cumulative amount, maximum amount and average amount of material sticking to the punch during the compression were recorded.

[5] = Particle size distribution (laser particle size analyzer); conditions: wet mode, Isopar G
Method: The particle size distribution data in the present disclosure were acquired by an [MUT] laser particle size analyzer of Microtrac. Microtrac [MUT] is equipped with an SDC (Sample Delivery Controller). The test is carried out in wet mode, and the dispersion medium is Isopar G. The parameters are as follows:

[6] = Dynamic Vapor Sorption (DVS); conditions: humidity lower than 30% RH, 25° C.
Method: Dynamic Vapor Sorption (DVS) is measured via an SMS (Surface Measurement Systems Ltd.) intrinsic DVS instrument. […] Typical Parameters for DVS test are as follows: • Temperature: 25° C. • Gas and flow rate: N2, 200 mL/min • dm/dt=0.002 • RH range: 0% RH to 95% RH

SMILES | Solubility compared with prior art [1] | Solubility in H2O ([1]; water, equilibrated 1 h) | Solubility in H2O ([1]; water, equilibrated 4 h) | Average tensile strength [2] | Bulk density [3] | Tapped density [3] | Compressibility index [3] | Average amount sticking to the punch [4] | Maximum amount sticking to the punch [4] | Solubility in FaSSIF ([1]; equilibrated 1 h) | Solubility in FaSSIF ([1]; equilibrated 4 h) | Solubility in FeSSIF ([1]; equilibrated 1 h) | Solubility in FeSSIF ([1]; equilibrated 4 h) | also measured
COc1cc2nccc(Oc3ccc(NC(=O)C4(C(=O)Nc5ccc(F)cc5)CC4)cc3)c2cc1OC.O=C(O)C[C@H](O)C(=O)O [Form CSI, N-(4-(6,7-dimethoxyquinolin-4-yloxy)phenyl)-N′-(4-fluorophenyl) cyclopropane-1,1-dicarboxamide (S)-malate] | higher than that of prior art | 350 µg/mL | 360 µg/mL | – | – | – | – | – | – | – | – | – | – | Solubility in water relative to Form M4 ([1]; water): over five times more; Solubility in water relative to Form N-2 ([1]; water): twice
COc1cc2nccc(Oc3ccc(NC(=O)C4(C(=O)Nc5ccc(F)cc5)CC4)cc3)c2cc1OC.O=C(O)C[C@H](O)C(=O)O [Form CSIII, N-(4-(6,7-dimethoxyquinolin-4-yloxy)phenyl)-N′-(4-fluorophenyl) cyclopropane-1,1-dicarboxamide (S)-malate] | higher than that of prior art | 300 µg/mL | 240 µg/mL | 1.56 MPa | 0.319 g/mL | 0.376 g/mL | 15% | 0.045 mg | 0.06 mg | 25 µg/mL | 8.3 µg/mL | 130 µg/mL | 120 µg/mL | Compressibility compared with prior art [2]: better compressibility; Flowability compared with prior art [3]: remarkably superior to that of prior art; Adhesiveness compared with prior art form [4]: superior to the prior art form; Maximum amount sticking to the punch of the prior art relative to Form CSIII [4]: over twice; Solubility relative to Form N-2 and Form M4 ([1]; FeSSIF and water): twice
COc1cc2nccc(Oc3ccc(NC(=O)C4(C(=O)Nc5ccc(F)cc5)CC4)cc3)c2cc1OC.O=C(O)C[C@H](O)C(=O)O [Form M2, N-(4-(6,7-dimethoxyquinolin-4-yloxy)phenyl)-N′-(4-fluorophenyl) cyclopropane-1,1-dicarboxamide (S)-malate] | – | – | – | – | – | – | – | – | – | – | – | – | – | D90 particle size [5]: 244.3 μm; Behaviour under humidity (DVS) [6]: dehydrated rapidly
COc1cc2nccc(Oc3ccc(NC(=O)C4(C(=O)Nc5ccc(F)cc5)CC4)cc3)c2cc1OC.O=C(O)C[C@H](O)C(=O)O [Form M4, N-(4-(6,7-dimethoxyquinolin-4-yloxy)phenyl)-N′-(4-fluorophenyl) cyclopropane-1,1-dicarboxamide (S)-malate] | – | 72 µg/mL | 2.8 µg/mL | 1.23 MPa | 0.251 g/mL | 0.387 g/mL | 35% | 0.08 mg | 0.11 mg | 12 µg/mL | 1.9 µg/mL | 62 µg/mL | 65 µg/mL | –
COc1cc2nccc(Oc3ccc(NC(=O)C4(C(=O)Nc5ccc(F)cc5)CC4)cc3)c2cc1OC.O=C(O)C[C@H](O)C(=O)O [Form N-2, N-(4-(6,7-dimethoxyquinolin-4-yloxy)phenyl)-N′-(4-fluorophenyl) cyclopropane-1,1-dicarboxamide (S)-malate] | – | 150 µg/mL | 150 µg/mL | 1.02 MPa | 0.194 g/mL | 0.256 g/mL | 24% | 0.20 mg | 0.26 mg | 11 µg/mL | 7.9 µg/mL | 47 µg/mL | 43 µg/mL | –
